Measurements taken from patent US7498349B2, “Biaryl compounds having anti-infective activity” (Genesoft Pharmaceuticals, Inc., priority 2002, dated 2009).
In brackets after ≈: the same amount, converted by molar mass.

Columns and labels:
B. cereus ATCC 11778 = assay: MIC, NCCLS broth microdilution assay; format: cell-based, Bacillus cereus; settings: B. cereus ATCC 11778
C. albicans ATCC 38247 = assay: MIC, antifungal assay; format: cell-based, Candida albicans; settings: C. albicans ATCC 38247
E. faecalis ATCC 29212 = assay: MIC, NCCLS broth microdilution assay; format: cell-based, Enterococcus faecalis; settings: E. faecalis ATCC 29212
S. aureus ATCC 13709 = assay: MIC, NCCLS broth microdilution assay; format: cell-based, Staphylococcus aureus; settings: S. aureus ATCC 13709, methicillin sensitive strain (MSSA)
S. aureus ATCC 27660 = assay: MIC, NCCLS broth microdilution assay; format: cell-based, Staphylococcus aureus; settings: S. aureus ATCC 27660, methicillin resistant strain (MRSA)
S. aureus ATCC 33591 = assay: MIC, NCCLS broth microdilution assay; format: cell-based, Staphylococcus aureus; settings: S. aureus ATCC 33591
[1] = test system: S. epidermidis ATCC 12228; assay: MIC, NCCLS broth microdilution assay; format: cell-based, Staphylococcus epidermidis
S. pneumoniae ATCC 49619 = assay: MIC, NCCLS broth microdilution assay; format: cell-based, Streptococcus pneumoniae; settings: S. pneumoniae ATCC 49619
E. coli ATCC 25922 = assay: MIC, NCCLS broth microdilution assay; format: cell-based, Escherichia coli; settings: E. coli ATCC 25922
[2] = test system: E. faecium (ATCC 51559, VRE); settings: E. faecium ATCC 51559, vancomycin resistant strain (VRE)
Description: (§1) In vitro biological activity data were collected for a variety of microorganisms, including Bacillus cereus (ATCC 11778), Staphylococcus aureus (ATCC 33591; ATCC 27660, a methicillin resistant strain (MRSA); ATCC 13709, a methicillin sensitive strain (MSSA)), Escherichia coli (ATCC 25922), Enterococcus faecalis (ATCC 29212), Streptococcus pneumoniae (ATCC 49619; ATCC 51422, a penicillin resistant strain (PRSP)), Enterococcus faecium (ATCC 51559, a vancomycin resistant strain (VRE)), and Staphylococcus epidermidis (ATCC 12228). Additionally, antifungal activity data were collected for Candida albicans (ATCC 38247).
(§2) Compounds according to this invention were screened for their in vitro activities against selected species of bacteria and fungi. The minimal inhibition concentration (MIC) of these compounds was determined using the National Committee for Clinical Laboratory Standards (NCCLS) broth microdilution assay in microtiter plates, as set forth in: (1) the guidelines of the National Committee for Clinical Laboratory Standards (NCCLS) Document M7-A4 (NCCLS, 1997); (2) the guidelines of the National Committee for Clinical Laboratory Standards (NCCLS) Document M11-A4 (NCCLS, 1997); and (3) the guidelines and reference method of the National Committee for Clinical Laboratory Standards (NCCLS) Document M27 -T (NCCLS, 1995). For antifungal assays, the method recommended in Murray, PR., 1995 Manual of Clinical Microbiology (ASM Press, Washington, D.C.), was employed.
(§3) (MIC values are keyed in the same manner as Table B.)

[3] = test system: S. pneumoniae (ATCC 51422, PRSP); settings: S. pneumoniae ATCC 51422, penicillin resistant strain (PRSP)
Description: as §1, §2, §3

SMILES	Minimum Inhibitory Concentration (MIC) (B. cereus ATCC 11778)	Minimum Inhibitory Concentration (MIC) (C. albicans ATCC 38247)	Minimum Inhibitory Concentration (MIC) (E. faecalis ATCC 29212)	Minimum Inhibitory Concentration (MIC) (S. aureus ATCC 13709)	Minimum Inhibitory Concentration (MIC) (S. aureus ATCC 27660)	Minimum Inhibitory Concentration (MIC) (S. aureus ATCC 33591)	Minimum Inhibitory Concentration (MIC) [1]	Minimum Inhibitory Concentration (MIC) (S. pneumoniae ATCC 49619)	Minimum Inhibitory Concentration (MIC) (E. coli ATCC 25922)	Minimum Inhibitory Concentration (MIC) [2]	Minimum Inhibitory Concentration (MIC) [3]	MIC (B. cereus ATCC 11778; Bacillus cereus, ATCC11778, read-out: Minimum Inhibitory Concentration (MIC)) [µg/mL]	MIC (C. albicans ATCC 38247; Candida albicans, ATCC38247, read-out: Minimum Inhibitory Concentration (MIC)) [µg/mL]	MIC (E. faecalis ATCC 29212; Enterococcus faecalis, ATCC29212, read-out: Minimum Inhibitory Concentration (MIC)) [µg/mL]	MIC (S. aureus ATCC 13709; Staphylococcus aureus, ATCC 13709 / MSSA, read-out: Minimum Inhibitory Concentration (MIC)) [µg/mL]	MIC (S. aureus ATCC 27660; Staphylococcus aureus, ATCC 27660 / MRSA, read-out: Minimum Inhibitory Concentration (MIC)) [µg/mL]	MIC (S. aureus ATCC 33591; Staphylococcus aureus, ATCC33591, read-out: Minimum Inhibitory Concentration (MIC)) [µg/mL]	MIC ([1]; Staphylococcus epidermidis, ATCC12228, read-out: Minimum Inhibitory Concentration (MIC)) [µg/mL]	MIC (E. coli ATCC 25922; Escherichia coli, ATCC25922, read-out: Minimum Inhibitory Concentration (MIC)) [µg/mL]
NCCCCNc1ncccc1C(=O)Nc1ccc(-c2cc3ccccc3o2)cc1 [Compound A-18]	+++ (MIC ≦ 4)	++ (4 < MIC < 12)	++ (4 < MIC < 12)	+++ (MIC ≦ 4)	+++ (MIC ≦ 4)	+++ (MIC ≦ 4)	+++ (MIC ≦ 4)	+++ (MIC ≦ 4)	>32 µg/mL	–	–	–	–	–	–	–	–	–	–
NCCCNc1snc(C(=O)Nc2ccc(-c3cc4ccccc4o3)cc2)c1Cl [Compound A-2]	+++ (MIC ≦ 4)	++ (4 < MIC < 12)	+++ (MIC ≦ 4)	+++ (MIC ≦ 4)	+++ (MIC ≦ 4)	+++ (MIC ≦ 4)	+++ (MIC ≦ 4)	+ (12 ≦ MIC ≦ 32)	>32 µg/mL	+++ (MIC ≦ 4)	+ (12 ≦ MIC ≦ 32)	–	–	–	–	–	–	–	–
CN(C)CCCNc1snc(C(=O)Nc2ccc(-c3cc4ccccc4s3)cc2)c1Cl [Compound A-47]	>32 µg/mL	+++ (MIC ≦ 4)	+++ (MIC ≦ 4)	+++ (MIC ≦ 4)	+++ (MIC ≦ 4)	+++ (MIC ≦ 4)	+++ (MIC ≦ 4)	>32 µg/mL	>32 µg/mL	–	–	–	–	–	–	–	–	–	–
NCCCCNc1snc(C(=O)Nc2ccc(-c3cc4ccccc4s3)nc2)c1Cl [Compound A-68]	+++ (MIC ≦ 4)	+++ (MIC ≦ 4)	+++ (MIC ≦ 4)	+++ (MIC ≦ 4)	+++ (MIC ≦ 4)	+++ (MIC ≦ 4)	+++ (MIC ≦ 4)	>32 µg/mL	>32 µg/mL	+++ (MIC ≦ 4)	>32 µg/mL	–	–	–	–	–	–	–	–
O=C(Nc1ccc(-c2cc3ccccc3s2)cc1)c1cccnc1NCCN1CCCC1 [Compound A-49]	+++ (MIC ≦ 4)	+++ (MIC ≦ 4)	+++ (MIC ≦ 4)	+++ (MIC ≦ 4)	+++ (MIC ≦ 4)	+++ (MIC ≦ 4)	+++ (MIC ≦ 4)	+ (12 ≦ MIC ≦ 32)	>32 µg/mL	–	–	–	–	–	–	–	–	–	–
O=C(Nc1ccc(-c2cc3ccccc3o2)nc1)c1ccc(Cl)cc1NCCN1CCNCC1 [Compound A-42]	++ (4 < MIC < 12)	>32 µg/mL	++ (4 < MIC < 12)	++ (4 < MIC < 12)	++ (4 < MIC < 12)	–	++ (4 < MIC < 12)	+ (12 ≦ MIC ≦ 32)	>32 µg/mL	–	–	–	–	–	–	–	–	–	–
CN(C)CCCNc1ncccc1C(=O)Nc1ccc(-c2cc3ccccc3s2)cc1 [Compound A-50]	+++ (MIC ≦ 4)	+++ (MIC ≦ 4)	+++ (MIC ≦ 4)	+++ (MIC ≦ 4)	+++ (MIC ≦ 4)	+++ (MIC ≦ 4)	+++ (MIC ≦ 4)	+ (12 ≦ MIC ≦ 32)	>32 µg/mL	–	–	–	–	–	–	–	–	–	–
CN(CCCN)CCCNc1snc(C(=O)Nc2ccc(-c3cc4ccccc4o3)cc2)c1Cl [Compound A-8]	+++ (MIC ≦ 4)	++ (4 < MIC < 12)	+++ (MIC ≦ 4)	+++ (MIC ≦ 4)	+++ (MIC ≦ 4)	+++ (MIC ≦ 4)	+++ (MIC ≦ 4)	+ (12 ≦ MIC ≦ 32)	+ (12 ≦ MIC ≦ 32)	–	–	–	–	–	–	–	–	–	–
O=C(Nc1ccc(-c2cc3ccccc3o2)cc1)c1cccnc1NCCCNC1CCCCC1 [Compound A-12]	+ (12 ≦ MIC ≦ 32)	+ (12 ≦ MIC ≦ 32)	++ (4 < MIC < 12)	–	–	–	+ (12 ≦ MIC ≦ 32)	++ (4 < MIC < 12)	>32 µg/mL	–	–	–	–	–	–	–	–	–	–
NCCNc1ncccc1C(=O)Nc1ccc(-c2cc3ccccc3o2)cc1 [Compound A-19]	+++ (MIC ≦ 4)	++ (4 < MIC < 12)	+++ (MIC ≦ 4)	+++ (MIC ≦ 4)	+++ (MIC ≦ 4)	+++ (MIC ≦ 4)	+++ (MIC ≦ 4)	+ (12 ≦ MIC ≦ 32)	>32 µg/mL	–	–	–	–	–	–	–	–	–	–
CN(C)CCCNc1cc(Cl)ccc1C(=O)Nc1ccc(-c2cc3ccccc3o2)nc1 [Compound A-44]	++ (4 < MIC < 12)	++ (4 < MIC < 12)	++ (4 < MIC < 12)	++ (4 < MIC < 12)	++ (4 < MIC < 12)	++ (4 < MIC < 12)	–	+ (12 ≦ MIC ≦ 32)	>32 µg/mL	–	–	–	–	–	–	–	–	–	–
Cc1cc(NC(=O)c2cccnc2NCCCCN)ccc1-c1cc2ccccc2o1 [Compound A-29]	+++ (MIC ≦ 4)	+ (12 ≦ MIC ≦ 32)	+++ (MIC ≦ 4)	+++ (MIC ≦ 4)	+++ (MIC ≦ 4)	+++ (MIC ≦ 4)	–	+ (12 ≦ MIC ≦ 32)	>32 µg/mL	–	–	–	–	–	–	–	–	–	–
Cc1cc(NC(=O)c2nsc(NCCN3CCCCC3)c2Cl)ccc1-c1cc2ccccc2o1 [Compound A-32]	–	–	–	–	–	–	–	–	–	–	–	> 32	4 to 12 (≈ 8.08 to 24.2 µM)	< 4	< 4	< 4	< 4	< 4	12 to 32 (≈ 24.2 to 64.6 µM)
